This is an account of results in paper PMC8578206, “Green Leaf Volatile-Burst in Selaginella moellendorffii” (Frontiers in Plant Science, 2021).

For this assay, the target named is T1, SmHPL1b (Selaginella moellendorffii, UniProt D8RF82).
T1 construct: gene CYP74L1; full ORF from genomic DNA in pET100/D-TOPO (tag kept), E. coli BL21 Star (DE3) membrane fraction
Briefly: decrease in absorbance at […] nm. The settings on record: E. coli membrane fraction, MES-KOH pH 6.0, 25 °C (methods); optimum pH 5.5. The format is biochemical.

T1 sequence (D8RF82 entry or part of it): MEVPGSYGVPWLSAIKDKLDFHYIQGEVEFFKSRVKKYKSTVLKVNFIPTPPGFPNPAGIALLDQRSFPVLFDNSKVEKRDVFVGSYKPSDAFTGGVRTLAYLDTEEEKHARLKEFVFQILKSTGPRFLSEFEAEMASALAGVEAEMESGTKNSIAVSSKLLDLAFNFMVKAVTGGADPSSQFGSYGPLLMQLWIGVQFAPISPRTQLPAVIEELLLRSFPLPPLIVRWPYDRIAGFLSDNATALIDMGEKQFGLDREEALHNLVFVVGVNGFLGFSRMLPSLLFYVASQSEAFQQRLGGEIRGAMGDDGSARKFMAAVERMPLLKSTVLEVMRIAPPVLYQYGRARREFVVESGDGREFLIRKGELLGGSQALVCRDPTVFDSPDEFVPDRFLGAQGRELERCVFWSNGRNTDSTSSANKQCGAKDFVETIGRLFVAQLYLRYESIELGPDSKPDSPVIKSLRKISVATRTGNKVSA

Turning to `CC/C=C\C[C@@H](/C=C/C=C\CCCCCCCC(=O)O)OO` [13HPOT, (9Z,11E,15Z)-13-hydroperoxyoctadeca-9,11,15-trienoic acid], the Km is 31.4 µM.

In general, Km refers to the substrate concentration at which the rate is half of its maximum.
